From patent US20230085307A1, “PYRIDAZINONE COMPOUND AND HERBICIDE” (NISSAN CHEMICAL CORPORATION, priority 2019, published 2023)

How the values were obtained:
late watergrass = assay: Test Example 1: herbicidal activity, application before weed generation under submerged conditions (Table 16, symbol A); format: in vivo, late watergrass (Echinochloa oryzicola)
Procedure, shortened: (§1)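 Emulsion formulation, water-diluted to set dose, was put onto the flooded surface (4 cm depth, alluvial soil) the same day weeds were sown and 2.5-leaf rice transplanted. After 3 weeks at 25-30 °C under glass, each species was rated 0 (≤5% kill) to 5 (≥90% kill).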

Japanese bulrush = assay: Test Example 1: herbicidal activity, application before weed generation under submerged conditions (Table 16, symbol B); format: in vivo, Japanese bulrush (Schoenoplectus juncoides)
Procedure, shortened: as §1

oval-leafed pondweed = assay: Test Example 1: herbicidal activity, application before weed generation under submerged conditions (Table 16, symbol C); format: in vivo, oval-leafed pondweed (Monochoria vaginalis)
Procedure, shortened: as §1

barnyard grass [1] = assay: Test Example 3: herbicidal effect by foliage application, Wagner pot (Table 18, symbol H); format: in vivo, barnyard grass (Echinochloa crus-galli)
Procedure, shortened: (§2)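 Plants were sown in alluvial soil held under 0.1–0.5 cm standing water and grown 14 days in a greenhouse at 25–30 °C. An emulsifiable formulation, water-diluted to the set dose, was then sprayed onto the foliage, and effects were scored three weeks later using previously defined criteria.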

Chinese sprangletop = assay: Test Example 3: herbicidal effect by foliage application, Wagner pot (Table 18, symbol D); format: in vivo, chinese sprangletop (Leptochloa chinensis)
Procedure, shortened: as §2

rice flat sedge = assay: Test Example 3: herbicidal effect by foliage application, Wagner pot (Table 18, symbol E); format: in vivo, rice flat sedge (Cyperus iria)
Procedure, shortened: as §2

southern crabgrass [2] = assay: Test Example 4: herbicidal effect by soil treatment (Table 19, symbol F); format: in vivo, southern crabgrass (Digitaria ciliaris); conditions: amount of applied herbicide 320 g/ha
Procedure, shortened: (§3)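 Scoring uses the grading scale of an earlier test, three weeks post-application. Treatment consists of spraying a diluted emulsion formulation across the surface of sterilized diluvial soil in which seeds are buried near 1.5 cm deep; boxes are kept in a greenhouse between 25° C. and 30° C.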

green foxtail [3] = assay: Test Example 4: herbicidal effect by soil treatment (Table 19, symbol G); format: in vivo, green foxtail (Setaria viridis); conditions: amount of applied herbicide 320 g/ha
Procedure, shortened: as §3

barnyard grass [4] = assay: Test Example 4: herbicidal effect by soil treatment (Table 19, symbol H); format: in vivo, barnyard grass (Echinochloa crus-galli); conditions: amount of applied herbicide 320 g/ha
Procedure, shortened: as §3

wild oat [5] = assay: Test Example 4: herbicidal effect by soil treatment (Table 19, symbol I); format: in vivo, wild oat (Avena fatua); conditions: amount of applied herbicide 320 g/ha
Procedure, shortened: as §3

blackgrass [6] = assay: Test Example 4: herbicidal effect by soil treatment (Table 19, symbol J); format: in vivo, blackgrass (Alopecurus myosuroides); conditions: amount of applied herbicide 320 g/ha
Procedure, shortened: as §3

Italian ryegrass [7] = assay: Test Example 4: herbicidal effect by soil treatment (Table 19, symbol K); format: in vivo, Italian ryegrass (Lolium multiflorum); conditions: amount of applied herbicide 320 g/ha
Procedure, shortened: as §3

windgrass [8] = assay: Test Example 4: herbicidal effect by soil treatment (Table 19, symbol L); format: in vivo, windgrass (Apera spica-venti); conditions: amount of applied herbicide 320 g/ha
Procedure, shortened: as §3

velvetleaf [9] = assay: Test Example 4: herbicidal effect by soil treatment (Table 19, symbol M); format: in vivo, velvetleaf (Abutilon theophrasti); conditions: amount of applied herbicide 320 g/ha
Procedure, shortened: as §3

redroot pigweed [10] = assay: Test Example 4: herbicidal effect by soil treatment (Table 19, symbol N); format: in vivo, redroot pigweed (Amaranthus retroflexus); conditions: amount of applied herbicide 320 g/ha
Procedure, shortened: as §3

lambsquarters [11] = assay: Test Example 4: herbicidal effect by soil treatment (Table 19, symbol O); format: in vivo, lambsquarters (Chenopodium album); conditions: amount of applied herbicide 320 g/ha
Procedure, shortened: as §3

chickweed [12] = assay: Test Example 4: herbicidal effect by soil treatment (Table 19, symbol P); format: in vivo, common chickweed (Stellaria media); conditions: amount of applied herbicide 320 g/ha
Procedure, shortened: as §3

persian speedwell [13] = assay: Test Example 4: herbicidal effect by soil treatment (Table 19, symbol R); format: in vivo, Persian speedwell (Veronica persica); conditions: amount of applied herbicide 320 g/ha
Procedure, shortened: as §3

southern crabgrass [14] = assay: Test Example 5: herbicidal effect by foliage application, plastic box (Table 20, symbol F); format: in vivo, southern crabgrass (Digitaria ciliaris); conditions: amount of applied herbicide 320 g/ha; foliage application after 14-day growth; evaluated three weeks after application
Procedure, shortened: (§4)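 Post-emergence foliar test in sterilized diluvial soil. Compound applied as water-diluted emulsion at a predetermined rate to 14-day-old plants; evaluation at three weeks.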

green foxtail [15] = assay: Test Example 5: herbicidal effect by foliage application, plastic box (Table 20, symbol G); format: in vivo, green foxtail (Setaria viridis); conditions: amount of applied herbicide 320 g/ha; foliage application after 14-day growth; evaluated three weeks after application
Procedure, shortened: as §4

barnyard grass [16] = assay: Test Example 5: herbicidal effect by foliage application, plastic box (Table 20, symbol H); format: in vivo, barnyard grass (Echinochloa crus-galli); conditions: amount of applied herbicide 320 g/ha; foliage application after 14-day growth; evaluated three weeks after application
Procedure, shortened: as §4

wild oat [17] = assay: Test Example 5: herbicidal effect by foliage application, plastic box (Table 20, symbol I); format: in vivo, wild oat (Avena fatua); conditions: amount of applied herbicide 320 g/ha; foliage application after 14-day growth; evaluated three weeks after application
Procedure, shortened: as §4

blackgrass [18] = assay: Test Example 5: herbicidal effect by foliage application, plastic box (Table 20, symbol J); format: in vivo, blackgrass (Alopecurus myosuroides); conditions: amount of applied herbicide 320 g/ha; foliage application after 14-day growth; evaluated three weeks after application
Procedure, shortened: as §4

Italian ryegrass [19] = assay: Test Example 5: herbicidal effect by foliage application, plastic box (Table 20, symbol K); format: in vivo, Italian ryegrass (Lolium multiflorum); conditions: amount of applied herbicide 320 g/ha; foliage application after 14-day growth; evaluated three weeks after application
Procedure, shortened: as §4

windgrass [20] = assay: Test Example 5: herbicidal effect by foliage application, plastic box (Table 20, symbol L); format: in vivo, windgrass (Apera spica-venti); conditions: amount of applied herbicide 320 g/ha; foliage application after 14-day growth; evaluated three weeks after application
Procedure, shortened: as §4

velvetleaf [21] = assay: Test Example 5: herbicidal effect by foliage application, plastic box (Table 20, symbol M); format: in vivo, velvetleaf (Abutilon theophrasti); conditions: amount of applied herbicide 320 g/ha; foliage application after 14-day growth; evaluated three weeks after application
Procedure, shortened: as §4

redroot pigweed [22] = assay: Test Example 5: herbicidal effect by foliage application, plastic box (Table 20, symbol N); format: in vivo, redroot pigweed (Amaranthus retroflexus); conditions: amount of applied herbicide 320 g/ha; foliage application after 14-day growth; evaluated three weeks after application
Procedure, shortened: as §4

lambsquarters [23] = assay: Test Example 5: herbicidal effect by foliage application, plastic box (Table 20, symbol O); format: in vivo, lambsquarters (Chenopodium album); conditions: amount of applied herbicide 320 g/ha; foliage application after 14-day growth; evaluated three weeks after application
Procedure, shortened: as §4

chickweed [24] = assay: Test Example 5: herbicidal effect by foliage application, plastic box (Table 20, symbol P); format: in vivo, common chickweed (Stellaria media); conditions: amount of applied herbicide 320 g/ha; foliage application after 14-day growth; evaluated three weeks after application
Procedure, shortened: as §4

persian speedwell [25] = assay: Test Example 5: herbicidal effect by foliage application, plastic box (Table 20, symbol R); format: in vivo, Persian speedwell (Veronica persica); conditions: amount of applied herbicide 320 g/ha; foliage application after 14-day growth; evaluated three weeks after application
Procedure, shortened: as §4

[26] = amount of applied herbicide 320 g/ha

## CCCC(=O)Oc1c(C)nn(C)c(=O)c1-c1c(-c2ccc(Cl)cc2OC)sc2ccc(F)cc12 [2-369]
Late watergrass; 320 g/ha applied herbicide
  Herbicidal effect on A: late watergrass (grade 0-5): 0 (Herbicidal rate of 5% or less (almost no effect))
Japanese bulrush; 320 g/ha applied herbicide
  Herbicidal effect on B: Japanese bulrush (grade 0-5): 0 (Herbicidal rate of 5% or less (almost no effect))
oval-leafed pondweed; 320 g/ha applied herbicide
  Herbicidal effect on C: oval-leafed pondweed (grade 0-5): 2 (Herbicidal rate of 20% or more and less than 40%)
Barnyard grass [1]; [26]
  herbicidal effect on H: barnyard grass: 4 (Herbicidal rate of 70% or more and less than 90%)
Chinese sprangletop; [26]
  herbicidal effect on D: Chinese sprangletop: 5 (Herbicidal rate of 90% or more (almost completely withered))
Rice flat sedge; [26]
  herbicidal effect on E: rice flat sedge: 4 (Herbicidal rate of 70% or more and less than 90%)
Southern crabgrass [2]
  herbicidal effect, F: southern crabgrass: 0 (Herbicidal rate of 5% or less (almost no effect))
Green foxtail [3]
  herbicidal effect, G: green foxtail: 0 (Herbicidal rate of 5% or less (almost no effect))
Barnyard grass [4]
  herbicidal effect, H: barnyard grass: 0 (Herbicidal rate of 5% or less (almost no effect))
Wild oat [5]
  herbicidal effect, I: wild oat: 0 (Herbicidal rate of 5% or less (almost no effect))
Blackgrass [6]
  herbicidal effect, J: blackgrass: 0 (Herbicidal rate of 5% or less (almost no effect))
Italian ryegrass [7]
  herbicidal effect, K: Italian ryegrass: 0 (Herbicidal rate of 5% or less (almost no effect))
Windgrass [8]
  herbicidal effect, L: windgrass: 3 (Herbicidal rate of 40% or more and less than 70%)
Velvetleaf [9]
  herbicidal effect, M: velvetleaf: 0 (Herbicidal rate of 5% or less (almost no effect))
Redroot pigweed [10]
  herbicidal effect, N: redroot pigweed: 0 (Herbicidal rate of 5% or less (almost no effect))
Lambsquarters [11]
  herbicidal effect, O: lambsquarters: 0 (Herbicidal rate of 5% or less (almost no effect))
Chickweed [12]
  herbicidal effect, P: chickweed: 0 (Herbicidal rate of 5% or less (almost no effect))
Persian speedwell [13]
  herbicidal effect, R: persian speedwell: 0 (Herbicidal rate of 5% or less (almost no effect))

## CCOc1cc(F)ccc1-c1sc2cc(F)c(F)cc2c1-c1c(O)c(C)nn(C)c1=O [5-031]
Late watergrass; [26]
  Herbicidal effect, A: late watergrass: 2 (Herbicidal rate of 20% or more and less than 40%)
Japanese bulrush; [26]
  Herbicidal effect, B: Japanese bulrush: 0 (Herbicidal rate of 5% or less (almost no effect))
oval-leafed pondweed; [26]
  Herbicidal effect, C: oval-leafed pondweed: 0 (Herbicidal rate of 5% or less (almost no effect))
Barnyard grass [1]; 320 g/ha
  herbicidal effect on barnyard grass (H): 5 (Herbicidal rate of 90% or more (almost completely withered))
Chinese sprangletop; 320 g/ha
  herbicidal effect on Chinese sprangletop (D): 4 (Herbicidal rate of 70% or more and less than 90%)
Rice flat sedge; 320 g/ha
  herbicidal effect on rice flat sedge (E): 5 (Herbicidal rate of 90% or more (almost completely withered))
Southern crabgrass [2]
  F: southern crabgrass, herbicidal effect grade: 4 (Herbicidal rate of 70% or more and less than 90%)
Green foxtail [3]
  G: green foxtail, herbicidal effect grade: 5 (Herbicidal rate of 90% or more (almost completely withered))
Barnyard grass [4]
  H: barnyard grass, herbicidal effect grade: 3 (Herbicidal rate of 40% or more and less than 70%)
Wild oat [5]
  I: wild oat, herbicidal effect grade: 1 (Herbicidal rate of 5% or more and less than 20%)
Blackgrass [6]
  J: blackgrass, herbicidal effect grade: 3 (Herbicidal rate of 40% or more and less than 70%)
Italian ryegrass [7]
  K: Italian ryegrass, herbicidal effect grade: 0 (Herbicidal rate of 5% or less (almost no effect))
Windgrass [8]
  L: windgrass, herbicidal effect grade: 5 (Herbicidal rate of 90% or more (almost completely withered))
Velvetleaf [9]
  M: velvetleaf, herbicidal effect grade: 4 (Herbicidal rate of 70% or more and less than 90%)
Redroot pigweed [10]
  N: redroot pigweed, herbicidal effect grade: 5 (Herbicidal rate of 90% or more (almost completely withered))
Lambsquarters [11]
  O: lambsquarters, herbicidal effect grade: 5 (Herbicidal rate of 90% or more (almost completely withered))
Chickweed [12]
  P: chickweed, herbicidal effect grade: 3 (Herbicidal rate of 40% or more and less than 70%)
Southern crabgrass [14]
  Herbicidal effect by foliage application, F: southern crabgrass: 5 (Herbicidal rate of 90% or more (almost completely withered))
Green foxtail [15]
  Herbicidal effect by foliage application, G: green foxtail: 5 (Herbicidal rate of 90% or more (almost completely withered))
Barnyard grass [16]
  Herbicidal effect by foliage application, H: barnyard grass: 5 (Herbicidal rate of 90% or more (almost completely withered))
Wild oat [17]
  Herbicidal effect by foliage application, I: wild oat: 4 (Herbicidal rate of 70% or more and less than 90%)
Blackgrass [18]
  Herbicidal effect by foliage application, J: blackgrass: 5 (Herbicidal rate of 90% or more (almost completely withered))
Italian ryegrass [19]
  Herbicidal effect by foliage application, K: Italian ryegrass: 2 (Herbicidal rate of 20% or more and less than 40%)
Windgrass [20]
  Herbicidal effect by foliage application, L: windgrass: 5 (Herbicidal rate of 90% or more (almost completely withered))
Velvetleaf [21]
  Herbicidal effect by foliage application, M: velvetleaf: 5 (Herbicidal rate of 90% or more (almost completely withered))
Redroot pigweed [22]
  Herbicidal effect by foliage application, N: redroot pigweed: 5 (Herbicidal rate of 90% or more (almost completely withered))
Lambsquarters [23]
  Herbicidal effect by foliage application, O: lambsquarters: 5 (Herbicidal rate of 90% or more (almost completely withered))
Chickweed [24]
  Herbicidal effect by foliage application, P: chickweed: 5 (Herbicidal rate of 90% or more (almost completely withered))
Persian speedwell [25]
  Herbicidal effect by foliage application, R: persian speedwell: 5 (Herbicidal rate of 90% or more (almost completely withered))
